Counter-ions that a name gives are not always drawn.
How the values were obtained:
Format in all cases: cell-based, human
[1] = test system: GIST cell cultures (GIST48 and GIST882); experiment: xCELLigence System / RTCA DP proliferation analysis; conditions: 10 μmol/L or higher concentration
From the text: Four different PDE3-inhibitors were used to block the activity of PDE3 enzymes and two kinase-inhibitors to block the activity of KIT and PDGFRA. Cilostazol, milrinone and amrinone were purchased from Sigma (St Louis, Mo., USA) and anagrelide hydrochloride was purchased from Tocris Bioscience (Bristol, UK). […] All other inhibitors were reconstituted in DMSO. In a preliminary analysis, multiple drug concentrations (from 0 to 100 μmol/L) were used to identify effective PDE3 inhibitor doses in the GIST cell lines. Effects on proliferation were analysed using xCELLigence System and the RTCA DP instrument (Acea Biosciences, San Diego, Calif., USA). […] Cell progression to apoptosis after anagrelide hydrochloride treatment was analysed in eight duplicate wells with a Click-iT TUNEL Alexa Fluor 488 Imaging Assay (Invitrogen, Carlsbad, Calif., USA) according to the manufacturer's instructions. Progression to apoptosis was measured after 48 hours and after 96 hours of drug treatments. Cell proliferation was examined by the MTT assay (Roche Diagnostics, Indianapolis, Ind., USA) and the xCELLigence System using the RTCA DP instrument (Acea Biosciences). […] At the end of the incubation, cell proliferation was analyzed from eight duplicate wells by adding 10 μL of the MTT reagent into each well and incubating at 37° C. for four hour. The plates were read with a Multiscan EX Microplate photometer (Thermo Scientific, Rockford, Ill., USA) at the wavelength of 540 nm. For the xCELLigence proliferation assay GIST48 and GIST882 cells were plated at a density of 2.5×10^4 cells/well. Before plating GIST882 cells, the wells were thin coated with Collagen I Rat Tail (Invitrogen, Carlsbad, Calif., USA) according to the manufacturer's instructions using 7.5 μg/mL final collagen concentration.

[2] = test system: GIST882 cells; experiment: MTT cell proliferation assay, GIST882; conditions: 10 μmol/L, 96 hours (four day culture)
Protocol: (§1) GIST882 is a primary human GIST cell line with a homozygous missense mutation in KIT exon 13, encoding a […] mutant KIT oncoprotein (Tuveson, D. A. 2001). […] GIST48 has a primary exon 11 missense mutation and a secondary exon 17 missense mutation (Bauer, S. 2006). LPS141 is a liposarcoma cell line that is established from patient derived de-differentiated liposarcoma (Snyder, E. L. 2009). The cell lines were cultured in a RPMI 1640 medium (GIBCO, California USA) supplemented with 20% fetal bovine serum (FBS) and 2% penicillin/streptomycin. Four different PDE3-inhibitors were used to block the activity of PDE3 enzymes and two kinase-inhibitors to block the activity of KIT and PDGFRA. […] Effects on proliferation were analysed using xCELLigence System and the RTCA DP instrument (Acea Biosciences, San Diego, Calif., USA). […] Cell progression to apoptosis after anagrelide hydrochloride treatment was analysed in eight duplicate wells with a Click-iT TUNEL Alexa Fluor 488 Imaging Assay (Invitrogen, Carlsbad, Calif., USA) according to the manufacturer's instructions. Progression to apoptosis was measured after 48 hours and after 96 hours of drug treatments. […] At the end of the incubation, cell proliferation was analyzed from eight duplicate wells by adding 10 μL of the MTT reagent into each well and incubating at 37° C. for four hour. […]

[3] = test system: GIST48 cells; experiment: Click-iT TUNEL apoptosis assay, GIST48; conditions: for apoptotic GIST48 cells: anagrelide hydrochloride 10 μmol/L, imatinib 0.5 μmol/L
Protocol: (§2) GIST882 is a primary human GIST cell line with a homozygous missense mutation in KIT exon 13, encoding a […] mutant KIT oncoprotein (Tuveson, D. A. 2001). […] GIST48 has a primary exon 11 missense mutation and a secondary exon 17 missense mutation (Bauer, S. 2006). LPS141 is a liposarcoma cell line that is established from patient derived de-differentiated liposarcoma (Snyder, E. L. 2009). The cell lines were cultured in a RPMI 1640 medium (GIBCO, California USA) supplemented with 20% fetal bovine serum (FBS) and 2% penicillin/streptomycin. Four different PDE3-inhibitors were used to block the activity of PDE3 enzymes and two kinase-inhibitors to block the activity of KIT and PDGFRA. Cilostazol, milrinone and amrinone were purchased from Sigma (St Louis, Mo., USA) and anagrelide hydrochloride was purchased from Tocris Bioscience (Bristol, UK). […] All other inhibitors were reconstituted in DMSO. […] Effects on proliferation were analysed using xCELLigence System and the RTCA DP instrument (Acea Biosciences, San Diego, Calif., USA). […] Cell progression to apoptosis after anagrelide hydrochloride treatment was analysed in eight duplicate wells with a Click-iT TUNEL Alexa Fluor 488 Imaging Assay (Invitrogen, Carlsbad, Calif., USA) according to the manufacturer's instructions. Progression to apoptosis was measured after 48 hours and after 96 hours of drug treatments.

[4] = test system: GIST882 cells; experiment: Click-iT TUNEL apoptosis assay, GIST882; conditions: anagrelide hydrochloride 10 μmol/L, imatinib 0.5 μmol/L
Protocol: as §2

[5] = test system: LPS141 liposarcoma cell line; experiment: MTT cell proliferation assay, LPS141; conditions: 10 μmol/L, 96 hours (four day culture)
Protocol: as §1

Nc1cc(-c2ccncc2)c[nH]c1=O [amrinone]
anti-proliferative effect on GIST cell cultures [1]: some anti-proliferative effect

O=C1CCc2cc(OCCCCc3nnnn3C3CCCCC3)ccc2N1 [cilostazol]
anti-proliferative effect on GIST cell cultures [1]: did not influence cell proliferation

Cc1[nH]c(=O)c(C#N)cc1-c1ccncc1 [milrinone]
anti-proliferative effect on GIST cell cultures [1]: did not influence cell proliferation

O=C1CN2Cc3c(ccc(Cl)c3Cl)N=C2N1 [anagrelide hydrochloride, 6,7-dichloro-1,5-dihydroimidazo[2,1-b]quinazolin-2(3H)-one]
effect on GIST882 cell growth in comparison with DMSO [2]: the only PDE3 inhibitor that had an effect | anti-proliferative effect on GIST cell cultures [1]: some anti-proliferative effect | apoptotic GIST48 cells ([3]; after 48 hours): 0.6% | apoptotic GIST48 cells ([3]; after 96 hours): 1% | DNA fragmentation in GIST48 cells ([3]; anagrelide hydrochloride treatment): only slight DNA fragmentation | apoptotic GIST882 cells ([4]; after 48 hours): 22% | apoptotic GIST882 cells ([4]; after 96 hours): 47% | effect on LPS141 cell growth in comparison with DMSO [5]: the only PDE3 inhibitor that had an effect

Source: US9901579B2, “Compositions comprising phosphodiesterase inhibitors for use in the treatment of a solid tumor in a human patient” (Sartar Therapeutics Ltd, priority 2013, dated 2018)
